Here are results for six molecules from patent US20190119298A1, “FUSED 3-PHENYLTETRAMIC ACID DERIVATIVES HAVING HERBICIDAL ACTION” (Bayer CropScience Aktiengesellschaft, priority 2016, published 2019).

Holding throughout (type): in vivo
Experiment [1] concerns Avena fatua. Kind of experiment: Pre-emergence herbicidal effect. The settings on record: 320 g/ha, scored visually after 3 weeks vs untreated controls, 100% = plants have died. An outline of the steps:
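Weed and crop seeds sown in sandy loam were treated pre-emergence on the soil surface with WP or EC formulations at a water rate of 600 to 800 L/ha plus 0.2% wetting agent. Plants grown in a greenhouse; damage scored visually after 3 weeks as percent activity relative to untreated controls (100% = dead).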

Experiment [2] concerns Lolium multiflorum. The experiment can be described thus: Post-emergence herbicidal effect. The note with it: one-leaf stage, 320 g/ha, assessed visually after about 3 weeks, 100% = plants have died. An outline of the steps: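 Plants in sandy loam treated post-emergence at one-leaf stage (2–3 weeks after sowing) with WP or EC formulations sprayed at 600–800 L/ha water plus 0.2% wetting agent. After about 3 weeks in the greenhouse, percent herbicidal action rated visually against untreated controls (100% = plants dead).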

Experiment [3] relates to Setaria viridis. Kind of experiment: Pre-emergence herbicidal effect. The note with it: 320 g/ha, scored visually after 3 weeks vs untreated controls, 100% = plants have died. The method in brief: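 Pre-emergence: WP or EC formulations sprayed onto the soil surface over sown seeds in sandy loam at 600–800 L/ha water with 0.2% wetting agent. Plants kept in a greenhouse; damage scored visually after 3 weeks as % activity versus untreated controls (100% = dead).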

The subject of experiment [4] is Echinochloa crus-galli. The experiment can be described thus: Pre-emergence herbicidal effect. The note with it: 320 g/ha, scored visually after 3 weeks vs untreated controls, 100% = plants have died. The method in brief:
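Wettable powder or emulsion concentrate sprayed onto soil covering freshly sown seeds in sandy loam, 600 to 800 L/ha water with 0.2% wetting agent. Pots kept in greenhouse. Damage scored visually after 3 weeks against untreated controls, 0-100% activity.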

The test system of experiment [5] is Alopecurus myosuroides. The experiment can be described thus: Post-emergence herbicidal effect. The settings on record: one-leaf stage, 320 g/ha, assessed visually after about 3 weeks, 100% = plants have died. The method in brief:
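Monocot and dicot plants grown in sandy loam in a greenhouse were sprayed at the one-leaf stage, 2–3 weeks after sowing, with WP or EC formulations in 600–800 L/ha water plus 0.2% wetting agent. Damage scored visually after about 3 weeks versus untreated controls (0% like control, 100% dead).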

For experiment [6], the system named is Lolium multiflorum. Kind of experiment: Pre-emergence herbicidal effect. The note with it: 320 g/ha, scored visually after 3 weeks vs untreated controls, 100% = plants have died. The method in brief:
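Seeds sown in sandy loam and covered; compounds as WP or EC applied to the soil surface pre-emergence at 600 to 800 L/ha water with 0.2% wetting agent. Greenhouse growth for 3 weeks, then damage scored visually versus untreated controls (100% = plants dead, 0% = like control).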

The subject of experiment [7] is Avena fatua. The experiment can be described thus: Post-emergence herbicidal effect. The settings on record: one-leaf stage, 320 g/ha, assessed visually after about 3 weeks, 100% = plants have died. An outline of the steps:
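Greenhouse-grown plants in sandy loam treated at one-leaf stage, 2–3 weeks after sowing, by spraying WP or EC formulations as aqueous suspension/emulsion at 600–800 L/ha water with 0.2% wetting agent. After about 3 weeks, effect scored visually versus untreated controls (0% = like control, 100% = plants dead).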

Experiment [8] has as its system Echinochloa crus-galli. Kind of experiment: Post-emergence herbicidal effect. The settings on record: one-leaf stage, 320 g/ha, assessed visually after about 3 weeks, 100% = plants have died. The method in brief:
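Greenhouse plants in sandy loam were sprayed at the one-leaf stage with WP or EC formulations at 600 to 800 L/ha water with 0.2% wetting agent. After about 3 weeks, damage was scored visually in % against untreated controls (100% = dead).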

The test system of experiment [9] is Alopecurus myosuroides. The experiment can be described thus: Pre-emergence herbicidal effect. The note with it: 320 g/ha, scored visually after 3 weeks vs untreated controls, 100% = plants have died. The method in brief:
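Seeds sown in sandy loam and covered; WP- or EC-formulated compounds sprayed onto covering soil at 600–800 L/ha water with 0.2% wetting agent. Greenhouse-grown; damage scored visually after 3 weeks versus untreated controls (100% = plants died, 0% = like control).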

Experiment [10] concerns Setaria viridis. The experiment can be described thus: Post-emergence herbicidal effect. The settings on record: one-leaf stage, 320 g/ha, assessed visually after about 3 weeks, 100% = plants have died. An outline of the steps: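 Greenhouse plants grown in sandy loam were sprayed at the one-leaf stage, 2-3 weeks after sowing. Compounds were applied as WP or EC formulations in 600-800 L/ha water plus 0.2% wetting agent. About 3 weeks later, damage was scored visually against untreated controls (0% = like control, 100% = dead plants).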

SMILES strings stand for the structures.

`Cc1cc(C)c(C2=C(OC(=O)C(C)(C)C)C3CCOCCN3C2=O)c(C)c1` (stereo not drawn) [Ib-1-11]: the “Pre-emergence action AVEFA (herbicidal activity in percent)” value in the experiment on Avena fatua [1] is listed as 90%. The “Post-emergence effectiveness LOLMU (herbicidal action in percent)” value in the experiment with Lolium multiflorum [2] stood at 100%. Moreover, in the experiment on Setaria viridis [3], the “Pre-emergence action SETVI (herbicidal activity in percent)” value was 100%. In the experiment on Echinochloa crus-galli [4], the “Pre-emergence action ECHCG (herbicidal activity in percent)” value came out at 100%. For the same molecule, the “Post-emergence effectiveness ALOMY (herbicidal action in percent)” value with Alopecurus myosuroides [5] is reported as 100%. Further, in the experiment with Lolium multiflorum [6], the “Pre-emergence action LOLMU (herbicidal activity in percent)” value stood at 100%. Further, in the experiment with Avena fatua [7], the “Post-emergence effectiveness AVEFA (herbicidal action in percent)” value was 100%. In addition, the “Post-emergence effectiveness ECHCG (herbicidal action in percent)” value in the experiment with Echinochloa crus-galli [8] is 100%. Moreover, the “Pre-emergence action ALOMY (herbicidal activity in percent)” value in the experiment with Alopecurus myosuroides [9] came to 90%. Further, in the experiment with Setaria viridis [10], the “Post-emergence effectiveness SETVI (herbicidal action in percent)” value came out at 100%.
As for `CC(=O)OC1=C(c2c(C)cc(C)cc2C)C(=O)N2CCOCCC12` (stereo not drawn) [Ib-1-12], the “Pre-emergence action AVEFA (herbicidal activity in percent)” value in the experiment with Avena fatua [1] stood at 90%. For the same molecule, the “Post-emergence effectiveness LOLMU (herbicidal action in percent)” value in the experiment with Lolium multiflorum [2] worked out at 100%. The “Pre-emergence action SETVI (herbicidal activity in percent)” value in the experiment on Setaria viridis [3] came out at 100%. Further, the “Pre-emergence action ECHCG (herbicidal activity in percent)” value in the experiment on Echinochloa crus-galli [4] is listed as 100%. In addition, the “Post-emergence effectiveness ALOMY (herbicidal action in percent)” value in the experiment on Alopecurus myosuroides [5] came out at 100%. Moreover, in the experiment with Lolium multiflorum [6], the “Pre-emergence action LOLMU (herbicidal activity in percent)” value is on record as 100%. Moreover, in the experiment on Avena fatua [7], the “Post-emergence effectiveness AVEFA (herbicidal action in percent)” value was 100%. Moreover, the “Post-emergence effectiveness ECHCG (herbicidal action in percent)” value with Echinochloa crus-galli [8] is listed as 100%. The “Pre-emergence action ALOMY (herbicidal activity in percent)” value in the experiment on Alopecurus myosuroides [9] amounted to 100%. Further, the “Post-emergence effectiveness SETVI (herbicidal action in percent)” value with Setaria viridis [10] came out at 100%.
Regarding `CCOC(=O)OC1=C(c2c(C)cccc2CC)C(=O)N2CCOCCC12` (stereo not drawn) [Ib-1-13], in the experiment with Avena fatua [1], the “Pre-emergence action AVEFA (herbicidal activity in percent)” value stood at 90%. Besides, the “Post-emergence effectiveness LOLMU (herbicidal action in percent)” value with Lolium multiflorum [2] is 100%. In the experiment with Setaria viridis [3], the “Pre-emergence action SETVI (herbicidal activity in percent)” value is 100%. In the experiment on Echinochloa crus-galli [4], the “Pre-emergence action ECHCG (herbicidal activity in percent)” value came out at 100%. Moreover, the “Post-emergence effectiveness ALOMY (herbicidal action in percent)” value with Alopecurus myosuroides [5] came out at 100%. Further, in the experiment on Lolium multiflorum [6], the “Pre-emergence action LOLMU (herbicidal activity in percent)” value came to 100%. Further, the “Post-emergence effectiveness AVEFA (herbicidal action in percent)” value with Avena fatua [7] was determined as 90%. Further, the “Post-emergence effectiveness ECHCG (herbicidal action in percent)” value with Echinochloa crus-galli [8] is given as 100%. For the same molecule, the “Pre-emergence action ALOMY (herbicidal activity in percent)” value in the experiment with Alopecurus myosuroides [9] turned out to be 80%. In addition, in the experiment with Setaria viridis [10], the “Post-emergence effectiveness SETVI (herbicidal action in percent)” value was found to be 100%.
`CCc1cccc(C)c1C1=C(OC(=O)C(C)(C)C)C2CCOCCN2C1=O` (stereo not drawn) [Ib-1-14]: the “Pre-emergence action AVEFA (herbicidal activity in percent)” value in the experiment on Avena fatua [1] stood at 90%. In addition, the “Post-emergence effectiveness LOLMU (herbicidal action in percent)” value with Lolium multiflorum [2] is recorded as 100%. For the same molecule, the “Pre-emergence action SETVI (herbicidal activity in percent)” value in the experiment on Setaria viridis [3] came to 100%. For the same molecule, the “Pre-emergence action ECHCG (herbicidal activity in percent)” value with Echinochloa crus-galli [4] was 100%. In addition, the “Post-emergence effectiveness ALOMY (herbicidal action in percent)” value in the experiment with Alopecurus myosuroides [5] was found to be 90%. In addition, in the experiment on Lolium multiflorum [6], the “Pre-emergence action LOLMU (herbicidal activity in percent)” value stood at 100%. Also, the “Post-emergence effectiveness AVEFA (herbicidal action in percent)” value in the experiment with Avena fatua [7] came to 100%. For the same molecule, the “Post-emergence effectiveness ECHCG (herbicidal action in percent)” value in the experiment with Echinochloa crus-galli [8] turned out to be 100%. Also, the “Pre-emergence action ALOMY (herbicidal activity in percent)” value with Alopecurus myosuroides [9] amounted to 80%. Besides, the “Post-emergence effectiveness SETVI (herbicidal action in percent)” value with Setaria viridis [10] is 100%.
As to `CCc1cc(Cl)cc(OC)c1C1=C(OC(=O)OC)C2CCOCCN2C1=O` (stereo not drawn) [Ib-1-16], the “Pre-emergence action AVEFA (herbicidal activity in percent)” value in the experiment on Avena fatua [1] amounted to 100%. For the same molecule, in the experiment with Lolium multiflorum [2], the “Post-emergence effectiveness LOLMU (herbicidal action in percent)” value is recorded as 100%. Moreover, the “Pre-emergence action SETVI (herbicidal activity in percent)” value in the experiment with Setaria viridis [3] stood at 100%. For the same molecule, the “Pre-emergence action ECHCG (herbicidal activity in percent)” value in the experiment with Echinochloa crus-galli [4] was 100%. In the experiment with Alopecurus myosuroides [5], the “Post-emergence effectiveness ALOMY (herbicidal action in percent)” value is 100%. Also, the “Pre-emergence action LOLMU (herbicidal activity in percent)” value in the experiment on Lolium multiflorum [6] stood at 100%. In addition, in the experiment on Avena fatua [7], the “Post-emergence effectiveness AVEFA (herbicidal action in percent)” value is listed as 100%. The “Post-emergence effectiveness ECHCG (herbicidal action in percent)” value with Echinochloa crus-galli [8] stood at 100%. Also, the “Pre-emergence action ALOMY (herbicidal activity in percent)” value in the experiment on Alopecurus myosuroides [9] was found to be 100%. Also, the “Post-emergence effectiveness SETVI (herbicidal action in percent)” value in the experiment on Setaria viridis [10] came out at 100%.
Consider `CCc1cc(Cl)cc(OC)c1C1=C(OC(=O)C(C)(C)C)C2CCOCCN2C1=O` (stereo not drawn) [Ib-1-18], for which the “Pre-emergence action AVEFA (herbicidal activity in percent)” value in the experiment with Avena fatua [1] amounted to 100%. In addition, the “Post-emergence effectiveness LOLMU (herbicidal action in percent)” value in the experiment on Lolium multiflorum [2] turned out to be 100%. The “Pre-emergence action SETVI (herbicidal activity in percent)” value in the experiment with Setaria viridis [3] was found to be 100%. In addition, in the experiment on Echinochloa crus-galli [4], the “Pre-emergence action ECHCG (herbicidal activity in percent)” value is given as 100%. For the same molecule, the “Post-emergence effectiveness ALOMY (herbicidal action in percent)” value in the experiment on Alopecurus myosuroides [5] amounted to 100%. In addition, the “Pre-emergence action LOLMU (herbicidal activity in percent)” value in the experiment on Lolium multiflorum [6] was found to be 100%. Moreover, the “Post-emergence effectiveness AVEFA (herbicidal action in percent)” value with Avena fatua [7] came out at 100%. Besides, the “Post-emergence effectiveness ECHCG (herbicidal action in percent)” value in the experiment with Echinochloa crus-galli [8] amounted to 100%. Also, the “Pre-emergence action ALOMY (herbicidal activity in percent)” value with Alopecurus myosuroides [9] was determined as 100%. Further, the “Post-emergence effectiveness SETVI (herbicidal action in percent)” value in the experiment with Setaria viridis [10] was determined as 100%.
